Measured values as given in US20160243237A1, “EMULSIONS OF PERFLUOROCARBONS” (TENAX THERAPEUTICS, INC., priority 2009, published 2016).
Entries after “also recorded” stand apart in the source; their conditions may differ.

Legend:
rats and monkeys = test: Single-dose GLP toxicity studies, absorption and persistence; format: in vivo
Excerpt: (§1) Perfluoro(tert-butylcyclohexane) at both 60% and 20% w/v concentrations has been tested in controlled, single-dose Good Laboratory Practice (GLP) toxicity studies in rats and monkeys. […] Nevertheless, perfluoro(tert-butylcyclohexane) represents a better balance between persistence and the tendency to produce hyperinflated, non-collapsible lungs than what is seen with PFOB and perfluorodecalin.

[1] = Gas carrying capacity (oxygen, CO2); format: physicochemical; settings: at body temperature
Description: Perfluoro(tert-butylcyclohexane) can carry about 43 mL of oxygen per 100 mL of PFC, and 196 mL of CO2 per 100 mL of PFC at body temperature.
FtBu can dissolve and release large amounts of gases, including the blood gases oxygen and carbon dioxide. […] As such, no sinusoidal release curve of oxygen is encountered. The transport and release of oxygen and other gases by FtBu is a simple passive process, the quantity of gas dissolved is linearly related to its partial pressure, essentially following Henry's Law.
In the body the PFC emulsion is capable of uploading and unloading oxygen and CO2 more efficiently than blood, (at a FtBu concentration of 60% w/v, Oxycyte® can dissolve 3-4 times the amount of oxygen than human hemoglobin can off-load under normal physiological conditions) and this process is concentration-gradient mediated (Henry's Law). Because the median size of the PFC droplets is approximately 40-50 times smaller than an erythrocyte, Oxycyte® is able to oxygenate tissues with narrowed capillaries, as occurs in brain contusions. After about 10 hours, half of an intravenous dose of 3 mL/kg remains in the circulation. PFCs are eliminated from the blood when macrophages scavenge the lipid particles. This is quite similar to how Intralipid® is transported from the blood stream. PFCs are deposited in the liver and spleen. […]

[2] = Solubility of FtBu in water and solvents; format: physicochemical; settings: room temperature
Excerpt: FtBu is most soluble in halogenated solvents such as isoflurane. Therefore, FtBu needs to be formulated as an aqueous emulsion for intravenous administration.

[3] = Physical properties of perfluoro(tert-butylcyclohexane); format: physicochemical
Excerpt: Physical properties of perfluoro(tert-butylcyclohexane) are as follows: […]

monkeys = test: Single-dose GLP toxicity study, pulmonary hyperinflation; format: in vivo; settings: 60% and 20% w/v, compared with PFOB
Excerpt: as §1

skin tissue = test: Measuring oxygen tension in tissue with fluorescent marker (Example 3); format: in vivo; settings: skin area treated with PFC
Description: A material which binds oxygen (fluorescent marker) is injected into skin tissue. The combination is fluorescent and the more oxygen that is present, the stronger the fluorescent signal. (representing the oxygen tension in the tissue). First it is determined that fluorescence chemistry is unaffected by the PFCs and poloxamers. Then as a control, the fluorescent marker is injected into the skin, and oxygen tension is obtained. Finally, the same area is treated with a PFC, PFC emulsion or a PFC gel and oxygen tension is again obtained.

[4] = Mechanical stability of the emulsion with tonicity adjusters; format: physicochemical; settings: tonicity adjuster compared with sodium chloride
Excerpt: Glycerin USP is used in the formulation to adjust the tonicity of the emulsion. For intravenous infusion, it is important that the tonicity of the emulsion be in the same physiological range as blood tonicity. Glycerin was chosen because it has a long history of use in parenteral emulsions and because it is not an ionizable species that could contribute to coalescence of the emulsion particles by disruption of the charged layer (zeta potential) surrounding the particles.

SMILES	persistence in liver and spleen (RES half-life) (rats and monkeys; compared with PFOB)	absorption in the body (rats and monkeys; single dose)	CO2 carried [1]	oxygen carried [1]	solubility in 2,2,4-trimethylpentane(isooctane) [2]	solubility in halogenated solvents such as isoflurane [2]	solubility in water [2]	Density [3]	Kinematic Viscosity [3]	Vapor Pressure @ 25° C. ([3]; 25° C.)	Vapor Pressure @ 37° C. ([3]; 37° C.)	degree of pulmonary hyperinflation (monkeys)	local oxygen tension in the tissue (skin tissue)	mechanical stability of the emulsion [4]
FC(F)(F)C(C(F)(F)F)(C(F)(F)F)C1(F)C(F)(F)C(F)(F)C(F)(F)C(F)(F)C1(F)F [perfluoro(tert-butylcyclohexane), 1-(1,1-bis(trifluoromethyl)-2,2,2-trifluoroethyl)-1,2,2,3,3,4,4,5,5,6,6-undecafluorocyclohexane]	somewhat longer than what has been reported for PFOB; also recorded: somewhat longer than that of the benchmark perfluorocarbon, PFOB	generally comparable to what has been reported for other PFCs	~196 mL of CO2 per 100 mL of PFC	about 43 mL of oxygen per 100 mL of PFC	only minimal solubility	most soluble	virtually insoluble in water	1.97 g/mL	5.378 cP	3.8 mmHg	4.4 mmHg	significantly less than that seen in monkeys treated with PFOB; also recorded: correspondingly lesser propensity to cause pulmonary hyperinflation	substantially increases local oxygen tension	
OC[C@@H](O)[C@@H](O)[C@H](O)[C@H](O)CO [mannitol]														superior to sodium chloride
OCC(O)CO [glycerin, Glycerin]														superior to sodium chloride
